# In patent US20130143913A1, “PROPHYLACTIC OR THERAPEUTIC AGENT FOR NON-ALCOHOLIC STEATOHEPATITIS” (KYORIN PHARMACEUTICAL CO., LTD., priority 2010, published 2013):
# Assays:
# [1] = test system: fatty acid synthesis in the liver; assay: Hepatic fatty acid synthesis from [1-14C]acetic acid in fasted/re-fed mice (fatty liver model); assay type: in vivo, mice (male C57BI/6J); settings: re-fed mice after 48 h fasting; ibudilast 10 and 100 mg/kg orally twice a day (FIG. 1); vs. vehicle
# Source text: In NAFLD, it is regarded that the increase of the fatty acid synthesis in the liver is an important factor involved in the fatty liver formation (Shinji, T., et al. 2005. J. Clin. Invest. 115: 1139-1142). Therefore, with reference to methods described in Delzenne et al. (Delzenne, N. M., et al., 1997, J. HepatoL, 26: 880-885) and Tsuchida et al. (Tsuchida. A., et al., 2004, J. Bio. Chem., 279: 30817-30822), effects of ibudilast on the fatty liver were examined by using re-fed mice in which the fatty acid synthesis in the liver is enhanced.
# After 48 hours of fasting, male C57BI/6J mice at 8 weeks of age (CLEA Japan, Inc.) were refed for four hours. […]
# The mice were refed with standard diet (CE-2, CLEA Japan, Inc.) after 30 minutes of the oral administration after fasting periods of 48 hours, and the mice were anatomized after refeeding periods of four hours. The content of triglyceride and biosynthesis of fatty acid in isolated liver were measured.
# The fatty acid synthesis in the liver was measured using the fatty acid synthesis from the acetic acid. […]
# After centrifugation, the chloroform layer was obtained as the lower layer. After the dried residue was dissolved to methanol, the scintillation cocktail was mixed with the obtained solution to measure radioactivity using liquid scintillation counter (Tri-Crab 1900CA, PerkinElmer). […]
# [2] = test system: content of triglyceride in the liver; assay: Hepatic triglyceride content in fasted/re-fed mice (fatty liver model); assay type: in vivo, mice (male C57BI/6J); settings: re-fed mice after 48 h fasting; ibudilast 10 and 100 mg/kg orally twice a day (FIG. 2); vs. vehicle
# Source text: In NAFLD, it is regarded that the increase of the fatty acid synthesis in the liver is an important factor involved in the fatty liver formation (Shinji, T., et al. 2005. J. Clin. Invest. 115: 1139-1142). Therefore, with reference to methods described in Delzenne et al. (Delzenne, N. M., et al., 1997, J. HepatoL, 26: 880-885) and Tsuchida et al. (Tsuchida. A., et al., 2004, J. Bio. Chem., 279: 30817-30822), effects of ibudilast on the fatty liver were examined by using re-fed mice in which the fatty acid synthesis in the liver is enhanced. After 48 hours of fasting, male C57BI/6J mice at 8 weeks of age (CLEA Japan, Inc.) were refed for four hours. To the vehicle group as a control, 2% (v/v) of PEG-60 hydrogenated castor oil (NIKKOL HCO-60, Nikko Chemicals Co., Ltd.) was orally administrated before fasting and after fasting periods of 12, 24, 36, and 48 hours. To ibudilast groups, […] or 100 mg/kg of ibudilast which was dissolved to 2% (v/v) of PEG-60 hydrogenated castor oil was orally administered before fasting and after fasting periods of 12, 24, 36, and 48 hours. […] The content of triglyceride and biosynthesis of fatty acid in isolated liver were measured. […] The dried extract was dissolved to 4% (v/v) of Triton X-100 and the triglyceride concentration was measured using Liquitech TG-II reagent (Roche Diagnostics K. K.). […]
# [3] = test system: triglyceride content in liver; assay: Hepatic triglyceride content in ob/ob mice (obesity-related fatty liver model); assay type: in vivo, mice (male ob/ob, B6.V-Lep^ob/J); settings: ibudilast 10, 30 or 100 mg/kg orally twice a day for two weeks (FIG. 3), vs. vehicle
# Description: Obesity and insulin resistance are regarded as a major pathologic basis in NAFLD (Kristina, M., et al. 2006, J. Clin Endocrinol Metab., 91: 4753-4761). Therefore, effect of ibudilast on fatty liver was evaluated using B6.V-Lep^ob/J mice (ob/ob; Charles River Laboratories Japan, Inc.), a model of obesity-related insulin resistance and fatty liver. Male ob/ob mice (Charles River Laboratories Japan, Inc.) at seven weeks of age were used. To the vehicle group as a control, 2% (v/v) of PEG-60 hydrogenated castor oil (NIKKOL HCO-60, Nikko Chemicals Co., Ltd.) was orally administrated twice a day. To ibudilast groups, 10, 30 or 100 mg/kg of ibudilast which was dissolved to 2% (v/v). of PEG-60 hydrogenated castor oil was orally administered twice a day. At 15 to 21 hours after the end of two weeks administration period, the mice were dissected in the fed state. The content of triglyceride in isolated liver was measured. Triglyceride was extracted from the liver by using improved method of Folch et al. (Folch, J., et al. 1957. J. Biol. Chem., 226: 497-509). Tissues were homogenized by using chloroform methanol mixture 2:1 (v/v). […] The dried extract was dissolved to 4% (v/v) of Triton X-100 and the triglyceride concentration was measured using Liquitech TG-II reagent (Roche Diagnostics K. K.). […]
# [4] = test system: TNFα mRNA; assay: TNFα mRNA expression in liver of MCD diet-fed mice (quantitative real-time PCR); assay type: in vivo, mice (male C57BI/6J); settings: ibudilast 10, 30 or 100 mg/kg orally twice a day for 14 days (FIG. 4), relative to 18S rRNA
# Description: (§1) Effects of ibudilast on the hepatic inflammation and hepatic fibrosis were examined using methionine- and choline-deficient (MCD) diet-fed mice which induced hepatic inflammation and hepatic fibrosis involved in human pathological conditions like NASH. The MCD diet (Oriental Yeast Co., Ltd.) produced in accordance with the previous report by Okumura et al. (Okumura, K., et al. 2006, Hepatol. Res., 36: 217-228) was administered to male C57BI/6J mice (CLEA Japan, Inc.) at ten weeks of age for six weeks. […] Thereafter, TNFα, MCP-1, IL-1β, TGFβ, and col1a1 mRNA expressions in isolated liver were measured using the quantitative real-time PCR method. The 18S rRNA mRNA expression was used as an internal standard of the quantitative real-time PCR method and similarly measured. […] The quantitative real-time PCR was performed using TaqMan Fast Universal PCR Master Mix (Applied Biosystems) and Applied Biosystems 7500 Fast Real-Time PCR System (Applied Biosystems). […] Moreover, each operation relating to the quantitative real-time PCR was carried out in accordance with the manual attached to each reagent, kits and device. […]
# [5] = test system: MCP-1 mRNA; assay: MCP-1 mRNA expression in liver of MCD diet-fed mice (quantitative real-time PCR); assay type: in vivo, mice (male C57BI/6J); settings: ibudilast 10, 30 or 100 mg/kg orally twice a day for 14 days (FIG. 5), relative to 18S rRNA
# Description: as §1
# [6] = test system: IL-1β mRNA; assay: IL-1β mRNA expression in liver of MCD diet-fed mice (quantitative real-time PCR); assay type: in vivo, mice (male C57BI/6J); settings: ibudilast 10, 30 or 100 mg/kg orally twice a day for 14 days (FIG. 6), relative to 18S rRNA
# Description: as §1
# [7] = test system: TGFβ mRNA; assay: TGFβ mRNA expression in liver of MCD diet-fed mice (quantitative real-time PCR); assay type: in vivo, mice (male C57BI/6J); settings: ibudilast 10, 30 or 100 mg/kg orally twice a day for 14 days (FIG. 7), relative to 18S rRNA
# Description: as §1
# [8] = test system: col1a1 mRNA; assay: col1a1 mRNA expression in liver of MCD diet-fed mice (quantitative real-time PCR); assay type: in vivo, mice (male C57BI/6J); settings: ibudilast 10, 30 or 100 mg/kg orally twice a day for 14 days (FIG. 8), relative to 18S rRNA
# Description: as §1
compound,measurement,setting,value
"CC(C)C(=O)c1c(C(C)C)nn2ccccc12 [Ibudilast, ibudilast]",fatty acid synthesis in the liver,[1],decreased
same,content of triglyceride in the liver,[2],significantly decreased
same,triglyceride content in liver,[3],significantly decreased
same,mRNA expression of TNFα in liver (index of hepatic inflammation),[4],decrease
same,mRNA expression of MCP-1 in liver (index of hepatic inflammation),[5],decrease
same,mRNA expression of IL-1β in liver (index of hepatic inflammation),[6],decrease
same,mRNA expression of TGFβ in liver (index of hepatic fibrosis),[7],decrease
same,mRNA expression of collal in liver (index of hepatic fibrosis),[8],decrease
